Source: patent publication US10946057B2, “Antiseptics” (INSIGHT HEALTH LIMITED, priority 2007, dated 2021)
≈ marks a conversion by molar mass, not a printed value. Where two headings read alike, the source gives them in different places.

Experiments:
[1] = CHG penetration profile studies with EO and IPA (CHG extracted from skin sections); type: in vitro ADME, human
Method: Following exposure, the skin samples were removed, washed with PBS and dried with an absorbent towel. The skin samples were immediately sprayed with a cryospray (Bright Instruments) and frozen at -20° C. Punch biopsies (7 mm in diameter) were cut from each frozen sample in triplicate and placed onto a cork disc in embedding compound (Bright Instruments, Cambs, UK), The frozen samples were sectioned horizontally with a microtome (Bright Instruments) into 20 μm sections (from the surface to a depth of 600 μm) and 30 μm sections (from depths of 600 to 1500 μm). Each section was placed into an Eppendorf tube and the total weight of each skin sample determined. Chlorhexidine was extracted from the skin by aliquoting 1 mL of mobile phase solution (75% methanol, 25% distilled water, 0.1% sodium heptane sulphonate, 0.1% diethylamine, pH 4) into skin samples and incubated in water bath at 60° C. for 1 h. The samples were mixed by vortexing and filtered prior to analysis by HPLC. The results were calculated as μg of CHG per mg of skin. Control skin (skin without treatment) was analysed parallel to the test samples. The assay was performed in triplicate. The data obtained were analysed by a student t-test using […] software (Graph pad software version 3.06) with a p<0.05 level of significance.

[2] = system: S. epidermidis RP62A (planktonic cells, suspension); assay: MIC/MBC by microbroth dilution assay, S. epidermidis in suspension; type: cell-based; details: Staphylococcus epidermidis, read-out: Minimum inhibitory concentration (MIC), planktonic cells
Method: Test inocula for the suspension assay were prepared by suspending 10 colonies of S. epidermidis RP62A from an overnight culture on MHA into sterile PBS. The bacterial concentration was adjusted to 1×10*8 cfu/mL by diluting the culture with sterile PBS and measuring the OD at 570 nm (calibration curve for S. epidermidis cfu against OD at 570 nm were performed prior to the study, data not shown). The suspension was further diluted with MHB to obtain inocula containing 1×10*7 cfu/mL for synergy assays or 1×10*6 cfu/ml for testing antimicrobial activity of CHG and oils alone in suspension.
(§1) Aqueous chlorhexidine digluconate (CHG), tea tree oil (TTO), eucalyptus oil (EO) and thymol (all from Sigma-Aldrich) were diluted with MHB to obtain stock solution of 512 mg/mL for essential oils and 512 μg/mL for CHG. Five percent (v/v) dimethylsulphoxide (DMSO) (Sigma-Aldrich) was added to the stocks of essential oils to enhance their solubility of the oils in suspension.
Minimum inhibitory concentration (MIC) and minimum bacterial concentration (MBC) of aqueous CHG, TTO, EO and thymol were performed by microbroth dilution assay (NCCLS, 1997). […] Minimum bactericidal concentrations were determined by removing the suspension from the clear wells into MHA, spread with a sterile spreader and incubating the plates in air at 37° C. for 18-20 hours. […]

[3] = Skin permeation study CHG + eucalyptus oil, Franz diffusion cells, receptor fluid by HPLC; type: in vitro ADME; details: 24 hour skin permeation, full thickness human skin, Franz cell
Method: Prior to the study full ethical committee approval and written consent from patients donating the tissue was obtained. […] Vertical diffusion cells (Franz diffusion cells), with an average diffusion surface area of 1.65 cm^2, were used for skin permeation studies. Phosphate buffered saline (PBS) was used as a receptor fluid, and left overnight in a receptor compartment (approximately volume 29 mls) with circulating water jacket set at 37° C. On the day of investigation the excised skin was thawed in PBS and cut into size to fit Franz diffusion cells (2.9 cm circle across). The skin samples were mounted into Franz diffusion cells and left for 1 hour in the diffusion cells to equilibrate with the receptor fluid prior to commencing the study. […] One millilitre of CHG solution of CHG/eucalyptus oil suspension was aliquoted in triplicate on the surface of the excised human skin on the donor compartment in Franz diffusion cells. The temperature was maintained constant by a circulating water jacket set at 37° C. and the receptor fluid was agitated continuously by magnetic stirrer bar. […] The samples were filtered and analysed by HPLC. Chlorhexidine digluconate was analysed quantitatively by HPLC. […] The samples were filtered and analysed with HPLC (Agilent 1100) with ODS-2 Hypersil column (5μ particle size) (Thermo Electron Corporation, UK) with a flow rate of 1.2 mls/min, detector wavelength 254 nm.

[4] = Skin permeation of CHG with EO and IPA, Franz diffusion cells, receptor compartment by HPLC; details: 24 h permeation study, skin from two donors; LOD 0.0157 μg/mL
Method: The full thickness human skin was frozen on the day of excision and stored at −70° C. until required.
Skin permeation studies were performed with vertical Franz diffusion cells. The receptor compartment was filled with 29 mL of PBS and maintained at 37° C. by a circulating water jacket and agitated by stirring with a magnetic bar. Skin samples were thawed in PBS at room temperature, dried with an absorbent towel and mounted onto Franz diffusion cells with the stratum corneum (SC) uppermost facing the donor compartment. The surface area exposed to the test compound was 3.14 cm2 (2 cm in diameter). All entrapped air was removed between the skin and receptor fluid and the skin was left to equilibrate for 30 min to reach the skin surface temperature of 32° C.
Twenty percent (w/v) aqueous CHG was diluted with distilled water, IPA and EO to obtain the final concentrations of 2% (w/v) CHG in 70% (v/v) IPA and 2% (w/v) CHG with 5%, 10%, 20% and 50% (v/v) EO. Tween 80 [0.1% (v/v)] was added to the test solutions to enhance EO solubility in the vehicle. One millilitre of test solution was spread over the skin surface in the donor compartment and the compartment was sealed with a moisture resistant film to prevent evaporation. […] All samples were filtered through a 0.45 μm nylon filter (Kinesis, UK) and analysed by HPLC. […]

[5] = system: S. epidermidis RP62A biofilm; assay: Antimicrobial activity against S. epidermidis biofilm by ATP bioluminescence; type: cell-based, Staphylococcus epidermidis; details: for MBC/biofilm eradicating concentration / Minimum inhibitory concentration (MIC), bacteria growing in biofilm: S. epidermidis RP62A biofilm
Method: S. epidermidis RP62A was used for its ability to produce a biofilm (Sadovskaya, et al., 2005). Bacteria were stored on beads (MicroBank, Pro-Lab Diagnostics, Cheshire, UK) at −70° C. until required. The ability of the strain to produce slime was confirmed by culturing the bacteria on Congo Red agar (Freeman, et al., 1989). For producing the microbial biofilms, the strains were first inoculated onto Muller-Hinton agar (MHA) (Oxoid, Basingstoke, UK) and incubated in air at 37° C. for 18-20 hours. Ten colonies from the culture plate were suspended into sterile phosphate buffered saline (PBS, Sigma, Dorset, UK). The bacterial concentration was adjusted to 1×10*8 cfu/mL by diluting the culture with sterile PBS and measuring the OD at 570 nm (calibration curve for S. epidermidis cfu against OD at 570 nm were performed prior to the study, data not shown). The suspension was further diluted with Muller-Hinton broth (MHB) supplemented with 2% (w/v) glucose (Fisher Scientific, Leicester, UK) to obtain inocula containing 1×10*5 cfu/mL. Two hundred μL of the bacterial suspension were aliquoted into wells of white walled, clear bottom, tissue culture treated 96-well microtitre plate (Corning Incorporated, NY, USA). The wells in the last column of the plate served as a control, and contained 200 μL of MHB supplemented with 2% (w/v) glucose only. Microtitre plates were incubated in air at 37° C. for 48 hours.
as §1
Prior to antimicrobial susceptibility studies, a standard curve for relative light units (RLU) versus bacterial cfu/mL was performed. S. epidermidis was grown with MHB supplemented with 2% (w/v) glucose in a 96-well microtitre plate as described previously to obtain bacterial biofilms. The wells of the microtitre plate with established bacterial biofilms were washed three times with sterile PBS and biofilms were removed from the wells by using “a scrape and wash method” (Adams, 2006). In brief, each well was filled with 200 μL of sterile PBS and, with a sterile pipette tip, the wall of each well was scraped approximately 10 times and the bottom scraped horizontally, vertically and cross-wise in each direction 10 times. The suspension was removed and collected into a sterile Eppendorf tube and the procedure repeated a further 4 times to obtain a final volume of 1000 μL per tube. The procedure was performed on three wells separately. The suspensions were mixed by vortexing and serial dilutions were performed in sterile PBS. 100 μL of the neat suspension and 10^−1 to 10^−5 dilutions were aliquoted onto wells of a white-walled, clear bottom microtitre plate. 100 microlitres of bactolyse were added into each well. The plate was then floated on a water bath sonicator and the plate was sonicated at 50 Hz for 30 minutes to lyse the cells and release the bacterial ATP. Twenty μL of luciferase where added into each well and luminescence read by a luminometer. The bacterial cfu in each suspension and dilution were established by the drop count method. The results were expressed as cfu against RLU.
Microtitre plates containing S. epidermidis RP62A biofilm were washed once with sterile PBS to remove any unbound bacteria. Antimicrobial agents were diluted with MHB to obtain CHG concentrations of 128 μg/mL to 0.25 μg/mL and essential oil concentrations of 256 mg/mL to 0.5 mg/mL. Two hundred and fifty microlitres of the antimicrobial compound were added in the wells in triplicate. Columns 11 and 12 served as controls with biofilm with saline alone and clear wells with MHB alone without bacterial biofilm.

Row | MIC ([2]; oil alone) [µg/mL] | Minimum inhibitory concentration (MIC), bacteria growing in biofilm ([5]; oil alone) [µg/mL] | MIC lower against biofilms compared to planktonic cells ([5]; biofilm vs planktonic) [fold] | SMILES | Mean concentration of CHG (and SEM) within the tissues ([1]; 2 min exposure, 300 to 1500 μm depths) [μg/mg tissue] | Mean CHG concentration (and SEM) ([1]; 30 min exposure, depths of 300 μm to 1500 μm) | CHG concentration extracted from the deeper layers of the skin ([1]; 24 h exposure, 300 to 1500 μm depths) | CHG concentration extracted from the top 100 μm layer ([1]; 24 h exposure, top 100 μm) [μg per mg tissue] | MIC ([2]; agent alone) [µg/mL] | Levels of CHG in the receptor fluid [3] | Chlorhexidine in the receptor compartment [4] | MBC/biofilm eradicating concentration [5] [µg/mL] | Minimum inhibitory concentration (MIC), bacteria growing in biofilm ([5]; agent alone) [µg/mL] | MIC higher against bacteria growing in biofilm compared to planktonic cells ([5]; biofilm vs planktonic) [fold]
1 |  |  |  | [H]/N=C(\N/C(=N/[H])NCCCCCCNC(=N)NC(=N)Nc1ccc(Cl)cc1)Nc1ccc(Cl)cc1 [CHG, chlorhexidine digluconate] | 0.0048 | 0.0021 (±0.0004) μg/mg tissue | 0.581 (±0.0466) μg per mg tissue | 7.880 | 2 | did not show detectable levels | not detected | 32 | 8 | 2
2 | 4000 (≈ 26.6 mM) | 1000 (≈ 6.66 mM) | 2 | Cc1ccc(C(C)C)c(O)c1 [Thymol, thymol] |  |  |  |  |  |  |  | 2000 (≈ 13.3 mM) |  | 
